From patent publication US12636352B2, “Functionalized enzyme-powered nanomotors” (FUNDACIO INSTITUT DE BIOENGINYERIA DE CATALUNYA, priority 2018, dated 2026)
Like-named read-outs stand apart in the source and are kept apart here.

Columns and labels:
[1] = FRET/Cy3 imaging of DNA-switch micromotors by confocal laser scanning microscopy; conditions: micromotors in PBS, pH 5 or pH 9
Procedure: To test the functionality of the switch once conjugated to the micromotors, FRET efficiency was monitored through a Leica-SP5 confocal laser scanning microscope (CSLM) equipped with a 63× oil immersion objective (FIG. 6B). For this, micromotors were suspended in PBS either at pH 5 or pH 9 and placed in a 8-well glass bottom dish for their analysis under CSLM. The emission of the donor (Cy3) was recorded using a 564 nm diode laser. The FRET image was obtained by exciting the Cy3 fluorophore and detecting the acceptor (Cy5) emission. Using a custom-made ImageJ plug-in, quantification of the FRET efficiency was achieved by calculating the FRET/Cy3 ratio.
The capability of micromotors to simultaneously record local pH changes produced while they are self-propelling was assessed by combining both optical tracking and FRET imaging using CSLM, where 25 s videos were recorded at 3FPS. In the absence of fuel, a mean FRET/Cy3 ratio of 1.8±0.09 (mean±standard error of the mean) was observed.
To gain insights into the instantaneous pH change around the micromotors from the initial moment of the reaction, micromotors were immobilized onto a glass surface using APTES as a coating agent to provide positive surface charges and stabilize the electrostatic interactions with the negatively charged micromotors. […]

[2] = test system: Human urinary bladder transitional cell papilloma RT4 cells
Procedure: 3D Cell Culture: Human urinary bladder transitional cell papilloma RT4 cells were cultured in McCoy's 5A (Modified) Medium, supplemented with FBS (10%) and penicillin-streptomycin solution (1%), in a 37° C. and 5% CO2 atmosphere. The cells were split every 4 days at a 1:2 ratio. To obtain 3D RT4 cell cultures, 8-well ibidi dishes were pre-coated with 23 μL of Matrigel™ (5 mg/mL) and incubated at 37° C. for 30 minutes, allowing the gel to form. Next, 30 μL of a suspension of RT4 cells at a density of 5×10^6 cells/mL was spread evenly in each well and the dishes were incubated for 30 minutes at 37° C. Finally, 150 μL of RT4 McCoy's medium containing 10% of Matrigel™ was added. The cultures were allowed to grow for 7 days before the experiments, changing the medium every 2 days.
Cytotoxicity Assays: The viability of RT4 3D cultures was quantified using the Alamar Blue assay and visualized using the LIVE/DEAD viability kit following manufacturer's instructions. […] After, the cultures were washed with medium, kept resting for 24 hours and viability was investigated according to manufacturer's instructions.
The spheroids were obtained by seeding RT4 cells in dishes coated with Matrigel™ which resembles the extracellular matrix and provides a 3D environment for cell growth. Then, the cultures were allowed to proliferate for 7 days and spheroid growth was monitored every day. […] After that, the cultures were washed with medium and cell viability and proliferation was assessed using the Alamar Blue assay.
It was further investigated the viability of the spheroids when exposed to the nanomotors (MSNP-Ur/PEG), under a range of concentrations of urea and at different incubation periods. The spheroids were incubated with 12.5 μg/mL of bare nanomotors or antibody-modified nanomotors at 0 mM, 25 mM, 30 mM and 40 mM of urea, for 1, 2 and 4 hours. Next, the cultures were thoroughly washed with medium to remove nanomotors and uncatalyzed urea and kept for 24 hours before analysis. The effect of the nanomotors on bladder cancer spheroids' viability was visualized using the LIVE/DEAD® viability kit and quantified using the Alamar Blue assay (FIG. 3).

[3] = Fluorescence (ratiometric FRET) pH titration of DNA switch in solution; conditions: 50 nM DNA switch
Procedure: Fluorescence measurements were carried out on a Cary Eclipse Fluorimeter (Varian), setting excitation wavelength to λex=530 nm (slitex=5 nm) and acquisition between 540 and 700 nm (slitem=5 nm) using quartz cuvettes of reduced volume (100 μL). All measurements were performed at T=25° C. in 10 mM HEPES. Switches were first diluted in HEPES 10 mM at the concentration of 1 μM. […]
The ratiometric FRET has been calculated as following:
Where FCyS is the maximum fluorescence emission of Cy5 (λem=670 nm) and FCy3 is the maximum fluorescence emission of Cy3 (λem=570 nm). The pH titration curves were obtained by plotting Rat. FRET vs hydronium ions concentration, and fitting the data with the following Langmuir-type equation: […]
Where Rat. FRETTRIPLEX and Rat. FRETDUPLEX represent the FRET signal of the switch in the triplex state (closed) and duplex state (open), respectively and where [H^+] represents the total concentration of hydrogen ions and
As a note, fluorophores employed here are not sensitive to pH in the range of pHs investigated (from pH 5.0 to pH 9.5) to avoid any interferences in the signal. It is important to note that this class of triplex-based switches show opening/closing kinetics sufficiently fast to allow the real time monitoring of pH variation (average time constant ˜100 ms).

Molecule: control switch: non-pH responsive hairpin DNA, SEQ ID NO: 3, Cy3/Cy5 labelled; tested conjugated to micromotors (DNA TCCTTGTCTGTCTGTCTGTCTGAACGTTTTTCGTTC; DNA, backbone not given here; further chemistry not fully specified)
- FRET/Cy3 emission of switch-modified micromotors at different pH [1]: no significant differences

Molecule: N [ammonia]
- spheroid viability ([2]; 20 mM ammonia): > 70%
- spheroid viability (biocompatibility) ([2]; 24 hours incubation, range of concentrations): increased cytotoxic trend with increasing concentrations
- spheroid viability ([2]; 24 hours, all ammonia concentrations tested): > 70%

Molecule: NC(N)=O [Urea, urea]
- spheroid viability (biocompatibility) [2]: not affecting spheroid viability

B1: DNA switch: triplex-forming single stranded DNA, SEQ ID NO: 1, labelled with Cy3 and Cy5 (nucleic acid)
DNA: TCCTTGTCTGTCTGTCTGTCTTTTTTGAAGAAGGAATTTATTCCTTCTTCGTTTGCTTCTTCCTT
modifications: DNA, backbone not given here; Cy3 and Cy5 labels, further chemistry not fully specified
- FRET efficiency ([3]; acidic pH values): high FRET efficiency
- FRET signal ([3]; pH of the solution increased (pH 5.0 to 9.5)): gradual decrease
